For 6 compounds, % of inhibition, % of control and % of engagement results are on record in ChEMBL document CHEMBL5465560, “Selectivity Literature for EUbOPEN Chemogenomic Library” (2024).

Test [1] concerns the target CDK7/Cyclin H/MNAT1 (Homo sapiens) (UniProt P51946+P50613+P51948). Description: Selectivity interaction (Adapta Assay) EUB0001632a CDK7. It is filed as protein-complex assay. The conditions noted are these: at 10 µM.
Test [2] addresses T1, Serine/threonine-protein kinase Nek3 (Homo sapiens) (UniProt P51956).
T1 sequence (whole entry): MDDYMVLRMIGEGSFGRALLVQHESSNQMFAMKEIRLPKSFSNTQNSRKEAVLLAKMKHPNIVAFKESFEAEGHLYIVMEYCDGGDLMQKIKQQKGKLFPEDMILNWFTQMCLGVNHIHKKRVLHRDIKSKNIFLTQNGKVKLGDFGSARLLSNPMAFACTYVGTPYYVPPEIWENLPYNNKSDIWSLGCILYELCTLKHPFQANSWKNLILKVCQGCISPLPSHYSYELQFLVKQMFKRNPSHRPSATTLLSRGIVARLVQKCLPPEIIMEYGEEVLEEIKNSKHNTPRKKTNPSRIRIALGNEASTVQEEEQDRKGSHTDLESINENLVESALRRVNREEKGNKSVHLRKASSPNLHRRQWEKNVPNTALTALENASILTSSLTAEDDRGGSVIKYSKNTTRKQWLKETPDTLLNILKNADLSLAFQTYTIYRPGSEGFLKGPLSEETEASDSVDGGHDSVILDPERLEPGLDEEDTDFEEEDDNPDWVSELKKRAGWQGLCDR
Description: Selectivity interaction (KinomeScan (DiscoverX)) EUB0000595a NEK3. The following applies: at 10 µM.

Test [3] concerns the target Ribosomal protein S6 kinase alpha-4 (Homo sapiens) (UniProt O75676). Description: Selectivity interaction (KinomeScan (DiscoverX)) EUB0000695a RPS6KA4. The conditions noted are these: at 100 nM.
The target of test [4] is T2, Inhibitor of nuclear factor kappa-B kinase subunit beta (Homo sapiens) (UniProt O14920).
T2 sequence (whole entry): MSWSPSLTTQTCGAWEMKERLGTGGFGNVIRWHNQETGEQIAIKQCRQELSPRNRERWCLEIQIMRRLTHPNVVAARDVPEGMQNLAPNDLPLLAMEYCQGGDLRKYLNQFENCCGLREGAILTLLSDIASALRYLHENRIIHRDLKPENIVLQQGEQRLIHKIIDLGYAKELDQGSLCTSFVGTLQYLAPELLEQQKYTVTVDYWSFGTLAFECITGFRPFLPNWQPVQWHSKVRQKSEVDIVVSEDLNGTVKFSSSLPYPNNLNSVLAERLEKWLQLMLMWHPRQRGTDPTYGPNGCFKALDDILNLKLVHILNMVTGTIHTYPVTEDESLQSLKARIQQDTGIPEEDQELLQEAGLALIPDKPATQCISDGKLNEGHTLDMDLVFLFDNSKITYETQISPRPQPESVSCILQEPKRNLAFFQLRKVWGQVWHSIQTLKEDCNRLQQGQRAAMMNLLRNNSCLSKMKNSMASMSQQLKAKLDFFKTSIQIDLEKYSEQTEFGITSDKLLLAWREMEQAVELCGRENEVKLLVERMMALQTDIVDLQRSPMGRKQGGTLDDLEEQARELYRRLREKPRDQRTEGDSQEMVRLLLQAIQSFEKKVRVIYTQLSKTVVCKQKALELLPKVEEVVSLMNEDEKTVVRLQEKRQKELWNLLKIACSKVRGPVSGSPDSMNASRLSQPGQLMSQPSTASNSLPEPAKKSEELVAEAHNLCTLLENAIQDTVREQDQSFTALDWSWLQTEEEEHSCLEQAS
In words: Selectivity interaction (SelectScreen profiling (Invitrogen)) EUB0000607a IKBKB. The following applies: at 2 µM.

Test [5] addresses Phosphatidylinositol 4-phosphate 3-kinase C2 domain-containing subunit beta (Homo sapiens) (UniProt O00750). Description: Selectivity interaction (KinomeScan (DiscoverX)) EUB0000092b PIK3C2B. The following applies: at 10 µM.
For test [6], the target named is T3, Serine/threonine-protein kinase TAO2 (Homo sapiens) (UniProt Q9UL54).
T3 sequence (whole entry): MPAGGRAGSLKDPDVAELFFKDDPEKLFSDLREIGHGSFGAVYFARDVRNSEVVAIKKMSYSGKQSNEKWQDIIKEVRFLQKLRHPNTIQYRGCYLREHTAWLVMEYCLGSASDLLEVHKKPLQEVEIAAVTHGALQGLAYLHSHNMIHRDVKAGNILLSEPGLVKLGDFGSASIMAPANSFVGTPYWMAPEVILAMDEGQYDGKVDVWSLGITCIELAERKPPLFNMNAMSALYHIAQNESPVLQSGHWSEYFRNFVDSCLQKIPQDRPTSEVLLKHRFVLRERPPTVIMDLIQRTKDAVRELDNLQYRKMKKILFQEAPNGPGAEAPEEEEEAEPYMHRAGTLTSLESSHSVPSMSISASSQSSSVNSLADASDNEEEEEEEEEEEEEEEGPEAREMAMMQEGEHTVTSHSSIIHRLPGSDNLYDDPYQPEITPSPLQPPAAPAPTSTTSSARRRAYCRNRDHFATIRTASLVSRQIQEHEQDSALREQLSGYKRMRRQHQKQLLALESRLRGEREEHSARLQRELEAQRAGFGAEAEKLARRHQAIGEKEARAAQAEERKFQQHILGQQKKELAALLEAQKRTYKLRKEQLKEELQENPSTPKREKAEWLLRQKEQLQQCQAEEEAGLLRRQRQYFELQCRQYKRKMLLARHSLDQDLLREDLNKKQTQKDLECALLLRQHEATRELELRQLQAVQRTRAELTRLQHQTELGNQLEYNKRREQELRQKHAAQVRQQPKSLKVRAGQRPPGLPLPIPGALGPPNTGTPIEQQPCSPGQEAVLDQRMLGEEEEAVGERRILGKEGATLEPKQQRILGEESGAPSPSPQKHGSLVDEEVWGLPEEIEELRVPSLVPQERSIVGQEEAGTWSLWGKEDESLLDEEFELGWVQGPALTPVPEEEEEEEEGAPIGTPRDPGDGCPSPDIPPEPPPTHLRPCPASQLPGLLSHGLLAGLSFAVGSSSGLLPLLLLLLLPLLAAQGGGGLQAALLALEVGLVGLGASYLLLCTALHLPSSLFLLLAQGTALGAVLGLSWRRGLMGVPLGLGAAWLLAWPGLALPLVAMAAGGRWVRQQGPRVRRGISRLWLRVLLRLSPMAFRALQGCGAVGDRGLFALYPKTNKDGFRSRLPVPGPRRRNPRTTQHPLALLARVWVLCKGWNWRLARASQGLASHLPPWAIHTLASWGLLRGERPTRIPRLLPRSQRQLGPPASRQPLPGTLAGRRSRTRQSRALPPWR
In words: Selectivity interaction (Kinase panel (KiNativ target engagement assay in Jurkat cells)) EUB0001635a TAOK2. The format is cell-based. The following applies: Selectivity number of off-targets 0.0, Selectivity number of targets 233.0, Source Knowledge https://www.sciencedirect.com/science/article/pii/S2451945619300674?via%3Dihub, at 1 µM.

Test [7] has as its target Serine/threonine-protein kinase SMG1 (Homo sapiens) (UniProt Q96Q15). Description: Selectivity interaction (Kinase panel (KiNativ target engagement assay in Jurkat cells)) EUB0001635a SMG1. The format is cell-based. The following applies: Selectivity number of off-targets 0.0, Selectivity number of targets 233.0, Source Knowledge https://www.sciencedirect.com/science/article/pii/S2451945619300674?via%3Dihub, at 1 µM.

Test [8] addresses Mitogen-activated protein kinase kinase kinase 4 (Homo sapiens) (UniProt Q9Y6R4). In words: Selectivity interaction (Kinase panel (KiNativ target engagement assay in Jurkat cells)) EUB0001635a MAP3K4. The conditions noted are these: Selectivity number of off-targets 0.0, Selectivity number of targets 233.0, Source Knowledge https://www.sciencedirect.com/science/article/pii/S2451945619300674?via%3Dihub, at 1 µM. The format is cell-based.

Sequence of Phosphatidylinositol 4-phosphate 3-kinase C2 domain-containing subunit beta (Homo sapiens) (O00750 whole entry, the tested form may be a part): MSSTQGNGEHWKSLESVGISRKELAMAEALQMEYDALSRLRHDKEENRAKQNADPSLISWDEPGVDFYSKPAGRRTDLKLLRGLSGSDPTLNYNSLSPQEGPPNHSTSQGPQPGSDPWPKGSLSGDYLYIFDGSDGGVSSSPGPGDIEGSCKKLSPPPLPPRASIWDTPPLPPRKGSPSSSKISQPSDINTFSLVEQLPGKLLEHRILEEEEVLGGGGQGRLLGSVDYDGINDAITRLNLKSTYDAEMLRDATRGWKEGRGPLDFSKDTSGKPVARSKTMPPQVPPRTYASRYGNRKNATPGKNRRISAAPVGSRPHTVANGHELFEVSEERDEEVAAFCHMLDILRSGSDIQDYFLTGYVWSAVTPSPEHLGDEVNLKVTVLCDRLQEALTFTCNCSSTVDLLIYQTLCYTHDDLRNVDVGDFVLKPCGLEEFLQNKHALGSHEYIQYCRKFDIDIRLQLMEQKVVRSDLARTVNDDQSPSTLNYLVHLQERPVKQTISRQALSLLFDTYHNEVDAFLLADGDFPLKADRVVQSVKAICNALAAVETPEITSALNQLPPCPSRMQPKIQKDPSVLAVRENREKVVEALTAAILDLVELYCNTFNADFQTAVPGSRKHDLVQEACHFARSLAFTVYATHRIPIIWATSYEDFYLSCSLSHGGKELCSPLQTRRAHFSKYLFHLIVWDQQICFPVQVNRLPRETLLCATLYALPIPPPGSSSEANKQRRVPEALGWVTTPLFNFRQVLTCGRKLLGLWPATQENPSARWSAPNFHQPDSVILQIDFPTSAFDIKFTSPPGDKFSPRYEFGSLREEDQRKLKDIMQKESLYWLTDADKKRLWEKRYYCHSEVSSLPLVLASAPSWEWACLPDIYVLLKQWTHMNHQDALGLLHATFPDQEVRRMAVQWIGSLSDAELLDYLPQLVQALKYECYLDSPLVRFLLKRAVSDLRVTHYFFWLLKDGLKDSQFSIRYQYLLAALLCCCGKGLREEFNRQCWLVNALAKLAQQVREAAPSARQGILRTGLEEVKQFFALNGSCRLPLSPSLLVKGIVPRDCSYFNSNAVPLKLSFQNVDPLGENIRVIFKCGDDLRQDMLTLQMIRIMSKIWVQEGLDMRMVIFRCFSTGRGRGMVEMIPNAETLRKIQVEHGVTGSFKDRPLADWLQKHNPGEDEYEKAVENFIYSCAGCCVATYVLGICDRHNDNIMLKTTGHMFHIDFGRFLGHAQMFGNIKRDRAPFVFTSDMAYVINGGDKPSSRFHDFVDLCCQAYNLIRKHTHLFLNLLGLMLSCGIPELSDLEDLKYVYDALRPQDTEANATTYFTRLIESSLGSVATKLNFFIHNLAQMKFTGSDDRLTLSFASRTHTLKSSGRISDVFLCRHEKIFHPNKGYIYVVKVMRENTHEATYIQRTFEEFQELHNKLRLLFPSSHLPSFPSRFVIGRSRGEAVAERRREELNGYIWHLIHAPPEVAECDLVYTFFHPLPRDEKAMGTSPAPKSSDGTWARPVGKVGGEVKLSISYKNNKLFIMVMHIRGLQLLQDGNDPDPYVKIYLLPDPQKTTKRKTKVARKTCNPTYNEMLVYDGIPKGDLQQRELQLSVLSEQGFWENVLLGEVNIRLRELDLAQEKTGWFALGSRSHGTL
Sequence of Ribosomal protein S6 kinase alpha-4 (Homo sapiens) (O75676 whole entry, looked up): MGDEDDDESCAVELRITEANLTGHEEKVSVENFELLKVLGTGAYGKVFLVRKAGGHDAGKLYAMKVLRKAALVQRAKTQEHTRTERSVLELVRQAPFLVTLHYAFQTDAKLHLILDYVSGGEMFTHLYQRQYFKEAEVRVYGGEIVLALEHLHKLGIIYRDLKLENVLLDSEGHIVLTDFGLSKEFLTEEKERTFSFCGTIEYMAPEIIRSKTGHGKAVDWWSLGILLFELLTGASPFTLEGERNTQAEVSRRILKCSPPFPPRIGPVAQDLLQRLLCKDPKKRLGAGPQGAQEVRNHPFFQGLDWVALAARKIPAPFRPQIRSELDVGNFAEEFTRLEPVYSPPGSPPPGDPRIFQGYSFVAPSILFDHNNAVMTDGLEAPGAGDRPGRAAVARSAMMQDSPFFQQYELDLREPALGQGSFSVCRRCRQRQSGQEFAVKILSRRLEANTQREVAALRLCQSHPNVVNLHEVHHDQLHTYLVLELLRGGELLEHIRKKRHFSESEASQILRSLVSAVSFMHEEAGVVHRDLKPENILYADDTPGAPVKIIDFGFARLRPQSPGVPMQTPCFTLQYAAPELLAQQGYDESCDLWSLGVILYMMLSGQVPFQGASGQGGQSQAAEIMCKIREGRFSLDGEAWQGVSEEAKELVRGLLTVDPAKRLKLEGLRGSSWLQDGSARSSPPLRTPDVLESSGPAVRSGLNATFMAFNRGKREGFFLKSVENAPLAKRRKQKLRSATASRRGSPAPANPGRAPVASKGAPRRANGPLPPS
Sequence of Mitogen-activated protein kinase kinase kinase 4 (Homo sapiens) (Q9Y6R4 whole entry): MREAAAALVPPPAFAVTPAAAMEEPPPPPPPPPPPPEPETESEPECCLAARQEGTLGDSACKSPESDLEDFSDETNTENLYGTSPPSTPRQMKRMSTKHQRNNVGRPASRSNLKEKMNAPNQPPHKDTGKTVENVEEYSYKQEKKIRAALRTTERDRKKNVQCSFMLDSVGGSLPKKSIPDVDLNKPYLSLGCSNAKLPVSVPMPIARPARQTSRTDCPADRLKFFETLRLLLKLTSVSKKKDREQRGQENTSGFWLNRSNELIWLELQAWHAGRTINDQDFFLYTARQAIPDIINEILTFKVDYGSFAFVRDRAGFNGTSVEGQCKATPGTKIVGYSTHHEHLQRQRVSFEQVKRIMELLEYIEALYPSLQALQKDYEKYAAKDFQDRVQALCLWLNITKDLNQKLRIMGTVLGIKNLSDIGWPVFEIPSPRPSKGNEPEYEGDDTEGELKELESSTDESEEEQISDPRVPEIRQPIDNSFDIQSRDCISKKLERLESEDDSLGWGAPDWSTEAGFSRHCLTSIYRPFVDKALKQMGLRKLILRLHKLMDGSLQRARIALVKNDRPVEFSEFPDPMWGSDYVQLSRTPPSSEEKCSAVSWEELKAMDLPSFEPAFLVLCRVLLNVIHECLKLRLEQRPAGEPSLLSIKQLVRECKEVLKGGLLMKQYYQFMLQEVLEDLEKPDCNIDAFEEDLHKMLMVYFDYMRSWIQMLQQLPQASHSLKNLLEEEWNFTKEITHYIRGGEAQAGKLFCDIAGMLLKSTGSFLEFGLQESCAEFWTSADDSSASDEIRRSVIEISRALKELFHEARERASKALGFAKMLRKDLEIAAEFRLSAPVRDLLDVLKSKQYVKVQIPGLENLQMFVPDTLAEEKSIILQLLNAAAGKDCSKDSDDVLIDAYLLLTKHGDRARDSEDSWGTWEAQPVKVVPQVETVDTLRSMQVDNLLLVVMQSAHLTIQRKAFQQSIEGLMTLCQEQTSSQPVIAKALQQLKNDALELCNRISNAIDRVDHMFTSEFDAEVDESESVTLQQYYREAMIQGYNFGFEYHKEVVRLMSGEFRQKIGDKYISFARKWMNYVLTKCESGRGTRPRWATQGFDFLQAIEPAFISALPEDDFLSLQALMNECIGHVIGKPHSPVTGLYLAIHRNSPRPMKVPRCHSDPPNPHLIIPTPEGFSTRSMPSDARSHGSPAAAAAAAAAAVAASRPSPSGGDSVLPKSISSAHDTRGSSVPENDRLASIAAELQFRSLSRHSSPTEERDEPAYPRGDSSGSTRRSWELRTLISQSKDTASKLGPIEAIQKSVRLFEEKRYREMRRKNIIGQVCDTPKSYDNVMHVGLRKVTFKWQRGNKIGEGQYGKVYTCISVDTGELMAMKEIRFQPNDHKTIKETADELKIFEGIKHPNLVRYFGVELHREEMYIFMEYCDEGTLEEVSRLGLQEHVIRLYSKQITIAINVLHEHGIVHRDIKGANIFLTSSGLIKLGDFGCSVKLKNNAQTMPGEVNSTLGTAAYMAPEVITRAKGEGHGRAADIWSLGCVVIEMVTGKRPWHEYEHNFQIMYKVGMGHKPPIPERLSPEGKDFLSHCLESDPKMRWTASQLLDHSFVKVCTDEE

For `Cn1cc(-n2cnc3c(NCc4nc5cc(Cl)c(Cl)cc5[nH]4)nc(N4CCOCC4)nc32)cn1`, the % of inhibition in test [1] was -13.5%. `COCC(=O)NC/C=C/c1ccc2ncnc(Nc3ccc(Oc4ccc(C)nc4)c(C)c3)c2c1` [CP-724714] displayed a % of control in test [2] of 95%. As for `Cc1cc(F)c(C(=O)Nc2cccc(-c3nncn3C(C)C)n2)cc1-n1cnc(C2CC2)c1`, the % of control in test [3] came to 69%. On to `CNC(=O)Nc1ccc(-c2nc(N3CC4CCC(C3)O4)c3cnn(C4CCC5(CC4)OCCO5)c3n2)cc1`, for which the % of inhibition in test [4] was -5%. `CCC(=O)N1CCN(c2ccc(-n3c(=O)ccc4cnc5ccc(-c6cnc7ccccc7c6)cc5c43)cc2C(F)(F)F)CC1` had a % of control in test [5] of 25%. For the compound `C=CC(=O)Nc1ccc(C(=O)Nc2[nH]nc3c2CN(C(=O)N[C@H](CN(C)C)c2ccccc2)C3(C)C)cc1`, the % of engagement in test [6] is -12.9%; in test [7] it was -6.6%; in test [8], -2.6%.
